target: BRD4 (Homo sapiens, UniProt O60885); assay: Time Resolved Fluorescence Resonance Energy Transfer (TR-FRET) binding assay, BRD4; conditions: one of the FRET assays described; read-out: FRET BRD4 IC50

`Cc1nnn(C)c1-c1cnc2c3cc(F)c(C(C)(O)C4CC4)cc3n([C@H](c3ccccc3)C3CCOCC3)c2c1` (single isomer, unassigned) [Example 444] and `Cc1nnn(C)c1-c1cnc2c3ccc([C@](C)(O)C4CC4)c(F)c3n([C@H](c3ccccc3)C3CCOCC3)c2c1` [Example 434, (1R)-1-cyclopropyl-1-{6-fluoro-3-[4-(^2H3)methyl-1-methyl-1H-1,2,3-triazol-5-yl]-5-[(S)-oxan-4-yl(phenyl)methyl]-5H-pyrido[3,2-b]indol-7-yl}ethan-1-ol] cannot be ordered by IC50: less than 5 nM for the first, less than 5 nM for the second.

`[2H]C([2H])([2H])c1nnn(C)c1-c1cnc2c3ccc(C(C)(C)O)cc3n(C(c3ncccc3C(F)(F)F)C3CCOCC3)c2c1` (single isomer, unassigned) [Example 318] and `[2H]C([2H])([2H])c1nnn(C)c1-c1cnc2c3ccc(C(C)(C)O)cc3n(C(c3ccc(F)cc3F)C3CCOCC3)c2c1` (stereo not drawn) [Example 281, 2-{5-[(2,4-Difluorophenyl)(oxan-4-yl)methyl]-3-[4-(^2H3)methyl-1-methyl-1H-1,2,3-triazol-5-yl]-5H-pyrido[3,2-b]indol-7-yl}propan-2-ol] cannot be ordered by IC50: less than 5 nM for the first, less than 5 nM for the second.

`[2H]C([2H])([2H])c1nnn(C)c1-c1cnc2c3ccc(C(C)(C)O)c(F)c3n([C@H](c3ccccc3F)C3CCOCC3)c2c1` [Example 272, 2-{6-Fluoro-5-[(S)-(2-fluorophenyl)(oxan-4-yl)methyl]-3-[4-(^2H3)methyl-1-methyl-1H-1,2,3-triazol-5-yl]-5H-pyrido[3,2-b]indol-7-yl}propan-2-ol] and `Cc1nnn(C)c1-c1cnc2c3ccc(C(C)(C)O)cc3n([C@H](c3ccccc3F)C3CCOCC3)c2c1` [Example 76] cannot be ordered by IC50: less than 5 nM for the first, less than 5 nM for the second.

`Cc1nnn(C)c1-c1cnc2c3cc(S(C)(=O)=O)ccc3n([C@H](c3ccccc3)C3CCOCC3)c2c1` [Example 375, 5-{8-Methanesulfonyl-5-[(S)-oxan-4-yl(phenyl)methyl]-5H-pyrido[3,2-b]indol-3-yl}-1,4-dimethyl-1H-1,2,3-triazole] and `Cc1nnn(C)c1-c1cnc2c3ccc(C(C)(C)O)cc3n([C@@H](c3ccccc3)C3CCOCC3)c2c1` [Example 91, 2-[3-(dimethyl-1H-1,2,3-triazol-5-yl)-5-[(R)-oxan-4-yl(phenyl)(^2H)methyl]-5H-pyrido[3,2-b]indol-7-yl]propan-2-ol] cannot be ordered by IC50: less than 5 nM for the first, less than 25 nM for the second.

`[2H]C([2H])([2H])c1nnn(C)c1-c1cnc2c3ccc(S(C)(=O)=O)cc3n(C(c3ccccc3)C3CCC(F)(F)CC3)c2c1` (stereo not drawn) [Example 158, 5-{5-[(4,4-Difluorocyclohexyl)(phenyl)methyl]-7-methanesulfonyl-5H-pyrido[3,2-b]indol-3-yl}-4-(^2H3)methyl-1-methyl-1H-1,2,3-triazole] and `[2H]C([2H])([2H])c1nnn(C)c1-c1cnc2c3ccc(C(C)(C)O)cc3n(C(c3ccccc3)C3CCC(F)(F)CC3)c2c1` (stereo not drawn) [Example 204, 2-{5-[(4,4-Difluorocyclohexyl)(phenyl)methyl]-3-[4-(^2H3)methyl-1-methyl-1H-1,2,3-triazol-5-yl]-5H-pyrido[3,2-b]indol-7-yl}propan-2-ol] cannot be ordered by IC50: less than 5 nM for the first, less than 5 nM for the second.

`Cc1nnn(C)c1-c1cnc2c3ccc(C(C)(C)O)cc3n(C(c3ccc(F)cc3)C3CCC3)c2c1` (single isomer, unassigned) [Example 251, 2-{5-[Cyclobutyl(4-fluorophenyl)methyl]-3-(dimethyl-1H-1,2,3-triazol-5-yl)-5H-pyrido[3,2-b]indol-7-yl}propan-2-ol] and `Cc1nnn(C)c1-c1cnc2c3ccc(C(C)(C)O)cc3n(C(c3ccccc3)C3CCC(F)(F)CC3)c2c1` (single isomer, unassigned) [Example 205] cannot be ordered by IC50: less than 5 nM for the first, less than 5 nM for the second.

`COc1cc2c3ncc(-c4c(C)nnn4C)cc3n([C@H](c3ccccc3)C3CCOCC3)c2cc1C(C)(C)O` [Example 354, 2-[3-(Dimethyl-1H-1,2,3-triazol-5-yl)-8-methoxy-5-[(S)-oxan-4-yl(phenyl)methyl]-5H-pyrido[3,2-b]indol-7-yl]propan-2-ol] and `COc1c(C(C)(C)O)ccc2c3ncc(-c4c(C)nnn4C)cc3n([C@H](c3ccccc3)C3CCOCC3)c12` [Example 355, 2-[3-(Dimethyl-1H-1,2,3-triazol-5-yl)-6-methoxy-5-[(S)-oxan-4-yl(phenyl)methyl]-5H-pyrido[3,2-b]indol-7-yl]propan-2-ol] cannot be ordered by IC50: less than 5 nM for the first, less than 5 nM for the second.

`[2H]C([2H])([2H])c1nnn(C)c1-c1cnc2c3c(OC)cc(C(C)(C)O)cc3n(C(c3cc(C)on3)C3CCOCC3)c2c1` (single isomer, unassigned) [Example 312] and `[2H]C([2H])([2H])c1nnn(C)c1-c1cnc2c3ccc(C(C)(C)O)cc3n(C(c3cc(C)on3)C3CCOCC3)c2c1` (stereo not drawn) [Example 308, 2-{5-[(5-Methyl-1,2-oxazol-3-yl)(oxan-4-yl)methyl]-3-[4-(^2H3)methyl-1-methyl-1H-1,2,3-triazol-5-yl]-5H-pyrido[3,2-b]indol-7-yl}propan-2-ol] cannot be ordered by IC50: less than 5 nM for the first, less than 5 nM for the second.

`[2H]C([2H])([2H])c1nnn(C)c1-c1cnc2c3c(OC)cc(C(C)(C)O)cc3n(C(c3ccncc3F)C3CCOCC3)c2c1` (stereo not drawn) [Example 347, 2-{5-[(3-Fluoropyridin-4-yl)(oxan-4-yl)methyl]-9-methoxy-3-[4-(^2H3)methyl-1-methyl-1H-1,2,3-triazol-5-yl]-5H-pyrido[3,2-b]indol-7-yl}propan-2-ol] and `Cc1nnn(C)c1-c1cnc2c3c(F)cc(C(C)(C)O)cc3n([C@H](c3ccccc3F)C3CCOCC3)c2c1` [Example 114, 2-[3-(Dimethyl-1H-1,2,3-triazol-5-yl)-9-fluoro-5-[(S)-(2-fluorophenyl)(oxan-4-yl)methyl]-5H-pyrido[3,2-b]indol-7-yl]propan-2-ol] cannot be ordered by IC50: less than 5 nM for the first, less than 5 nM for the second.

`Cc1noc(C)c1-c1cnc2c3ccc(C(C)(C)O)cc3n([C@H](CCC(F)(F)F)c3cscn3)c2c1` [Example 19] and `Cc1nnn(C)c1-c1cnc2c3ccc(C(C)(C)O)cc3n(C(CCC(F)(F)F)c3ccccn3)c2c1` (single isomer, unassigned) [Example 253, 2-[3-(Dimethyl-1H-1,2,3-triazol-5-yl)-5-[4,4,4-trifluoro-1-(pyridin-2-yl)butyl]-5H-pyrido[3,2-b]indol-7-yl]propan-2-ol] cannot be ordered by IC50: less than 5 nM for the first, less than 5 nM for the second.

`Cc1noc(C)c1-c1cnc2c3ccc(S(C)(=O)=O)cc3n(C(CCC(F)(F)F)c3ccccc3)c2c1` (single isomer, unassigned) [Example 39, 4-[7-Methanesulfonyl-5-(4,4,4-trifluoro-1-phenylbutyl)-5H-pyrido[3,2-b]indol-3-yl]-3,5-dimethyl-1,2-oxazole] and `COCC(c1ccccc1)n1c2cc(C(C)(C)O)ccc2c2ncc(-c3c(C)noc3C)cc21` (stereo not drawn) [Example 5] cannot be ordered by IC50: less than 1500 nM for the first, less than 5 nM for the second.

`Cc1noc(C)c1-c1cnc2c3ccc(C(=O)O)cc3n(C(c3ccccc3)c3ccccc3)c2c1` [Example 45, 3-(Dimethyl-1,2-oxazol-4-yl)-5-(diphenylmethyl)-5H-pyrido[3,2-b]indole-7-carboxylic acid] and `CCC(CC)n1c2cc(C(C)(C)O)ccc2c2ncc(-c3c(C)noc3C)cc21` [Example 4] cannot be ordered by IC50: less than 5 nM for the first, less than 25 nM for the second.

`[2H]C([2H])([2H])c1nnn(C)c1-c1cnc2c3c(OCC)cc(S(C)(=O)=O)cc3n(C(c3ccccc3)C3CCC(F)(F)CC3)c2c1` [Example 210, 5-{5-[(S)-(4,4-Difluorocyclohexyl)(phenyl)methyl]-9-ethoxy-7-methanesulfonyl-5H-pyrido[3,2-b]indol-3-yl}-4-(^2H3)methyl-1-methyl-1H-1,2,3-triazole] and `Cc1nnn(C)c1-c1cnc2c3c(F)cc(C(C)(C)O)cc3n([C@H](c3ccccc3)C3CCOCC3)c2c1` [Example 369, 2-[3-(Dimethyl-1H-1,2,3-triazol-5-yl)-9-fluoro-5-[(S)-oxan-4-yl(phenyl)methyl]-5H-pyrido[3,2-b]indol-7-yl]propan-2-ol] cannot be ordered by IC50: less than 5 nM for the first, less than 5 nM for the second.

`Cc1nnn(C)c1-c1cnc2c3c(S(C)(=O)=O)cccc3n(C(CCC(F)(F)F)c3ccccn3)c2c1` (single isomer, unassigned) [Example 258, 2-{1-[3-(Dimethyl-1H-1,2,3-triazol-5-yl)-9-methanesulfonyl-5H-pyrido[3,2-b]indol-5-yl]-4,4,4-trifluorobutyl}pyridine] and `Cc1nnn(C)c1-c1cnc2c3c(F)cc(C(C)(C)O)cc3n(C(c3cccc(F)c3F)C3CCOCC3)c2c1` (single isomer, unassigned) [Example 109, 2-{5-[(2,3-Difluorophenyl)(oxan-4-yl)methyl]-3-(dimethyl-1H-1,2,3-triazol-5-yl)-9-fluoro-5H-pyrido[3,2-b]indol-7-yl}propan-2-ol] cannot be ordered by IC50: less than 5 nM for the first, less than 5 nM for the second.

`Cc1nnn(C)c1-c1cnc2c3cc(F)c(C(C)(C)O)cc3n(C(c3ccc(F)cc3)C3CCOCC3)c2c1` (single isomer, unassigned) [Example 79, 2-[3-(Dimethyl-1H-1,2,3-triazol-5-yl)-8-fluoro-5-[(4-fluorophenyl)(oxan-4-yl)methyl]-5H-pyrido[3,2-b]indol-7-yl]propan-2-ol] and `Cc1nnn(C)c1-c1cnc2c3ccc(C(C)(C)O)cc3n(C(c3cc(F)cc(F)c3)C3CCOCC3)c2c1` (single isomer, unassigned) [Example 99, 2-{5-[(3,5-Difluorophenyl)(oxan-4-yl)methyl]-3-(dimethyl-1H-1,2,3-triazol-5-yl)-5H-pyrido[3,2-b]indol-7-yl}propan-2-ol] cannot be ordered by IC50: less than 25 nM for the first, less than 5 nM for the second.

`[2H]C([2H])([2H])c1nnn(C)c1-c1cnc2c3ccc(C(C)(C)O)c(F)c3n(C(c3ncccc3F)C3CCC(F)(F)CC3)c2c1` (single isomer, unassigned) [Example 456] and `Cc1nnn(C)c1-c1cnc2c3ccc(C(C)(C)O)cc3n(C(c3c(F)cc(F)cc3F)C3CCOCC3)c2c1` (single isomer, unassigned) [Example 102, 2-[3-(Dimethyl-1H-1,2,3-triazol-5-yl)-5-[oxan-4-yl(2,4,6-trifluorophenyl)methyl]-5H-pyrido[3,2-b]indol-7-yl]propan-2-ol] cannot be ordered by IC50: less than 5 nM for the first, less than 5 nM for the second.

With `Cc1cc(C(C2CCOCC2)n2c3cc(C(C)(C)O)ccc3c3ncc(-c4c(C)noc4C)cc32)no1` (single isomer, unassigned) [Example 306] the IC50 was less than 5 nM.
